Measured values taken from ChEMBL document CHEMBL1131573, “Potent dipeptide inhibitors of the pp60c-src SH2 domain” (J Med Chem, 1998).
Square brackets hold non-standard residues; d marks the D form. Peptide text beside a SMILES is read from it. pY = N[C@@H](Cc1ccc(OP(=O)(O)O)cc1)C(=O)O; Ahp = NCCCCCCC(=O)O

Test: Binding affinity against c-Src tyrosine kinase SH2 domain expressed as ratio of IC50 of test compound over IC50 of AcYEEIE

Row | SMILES | Ratio
1 | CCCCCN(CCCCC)C(=O)[C@H](CCC(=O)O)NC(=O)[C@H](Cc1ccc(OP(=O)(O)O)cc1)NC(=O)COCc1ccccc1 | 32.7
2 | CCCCCN(CCCCC)C(=O)[C@H](CCC(=O)O)NC(=O)[C@H](Cc1ccc(OP(=O)(O)O)cc1)NC(=O)CCc1ccccc1 | 10.8
3 | CCCCCN(CCCCC)C(=O)[C@H](CCC(=O)O)NC(=O)[C@H](Cc1ccc(OP(=O)(O)O)cc1)NC(=O)c1ccc(Cl)cc1 | 39
4 | CCCCCN(CCCCC)C(=O)[C@H](CCC(=O)O)NC(=O)[C@H](Cc1ccc(OP(=O)(O)O)cc1)NC(=O)CSc1ccccc1 | 17.7
5 | CC(=O)N[C@@H](Cc1ccc(OP(=O)(O)O)cc1)C(=O)N[C@@H](CCC(=O)O)C(=O)NCCc1c[nH]c2ccc(O)cc12 | 31.5
6 | CCCCCN(CCCCC)C(=O)[C@H](CSCc1ccccc1)NC(=O)[C@H](Cc1ccc(OP(=O)(O)O)cc1)NC(C)=O | 155
7 | CCCCCN(CCCCC)C(=O)[C@H](CCC(=O)O)NC(=O)[C@H](Cc1ccc(OP(=O)(O)O)cc1)NC(=O)c1ccc(C(F)(F)F)cc1 | 25.4
8 | COc1ccc2[nH]cc(CCNC(=O)[C@H](CCC(=O)O)NC(=O)[C@H](Cc3ccc(OP(=O)(O)O)cc3)NC(C)=O)c2c1 | 29.7
9 | CCCCCN(CCCCC)C(=O)[C@H](CCC(=O)O)NC(=O)[C@H](Cc1ccc(OP(=O)(O)O)cc1)NC(=O)CSCc1ccccc1 | 18.9
10 | CCCCCN(CCCCC)C(=O)[C@H](CCC(=O)O)NC(=O)[C@H](Cc1ccc(OP(=O)(O)O)cc1)NC(=O)Cc1ccc(CN)cc1 | 92.1
11 | CCCCCN(CCCCC)C(=O)[C@H](CCC(=O)O)NC(=O)[C@H](Cc1ccc(OP(=O)(O)O)cc1)NC(=O)CCCc1ccccc1 | 27.2
12 | CCCCCN(CCCCC)C(=O)[C@H](CSC)NC(=O)[C@H](Cc1ccc(OP(=O)(O)O)cc1)NC(C)=O | 33.1
13 | CCCCCN(CCCCC)C(=O)[C@H](CCC(=O)O)NC(=O)[C@H](Cc1ccc(OP(=O)(O)O)cc1)NC(=O)c1ccc(OC)cc1 | 7.2
14 | CCCCCN(CCCCC)C(=O)[C@H](CCC(=O)O)NC(=O)[C@H](Cc1ccc(OP(=O)(O)O)cc1)NC(=O)Cc1ccccc1 | 16.5
15 | CCCCCN(CCCCC)C(=O)[C@H](CCC(=O)O)NC(=O)[C@H](Cc1ccc(OP(=O)(O)O)cc1)NC(=O)CCc1ccc(O)cc1 | 26.7
16 | CCCCCN(CCCCC)C(=O)[C@H](CCC(=O)O)NC(=O)[C@H](Cc1ccc(OP(=O)(O)O)cc1)NC(=O)OCc1ccccc1 | 79.7
17 | CCCCCN(CCCCC)C(=O)[C@H](CCC(=O)O)NC(=O)[C@H](Cc1ccc(OP(=O)(O)O)cc1)NC(=O)Nc1ccc(OC)cc1 | 13.5
18 | CCCCCN(CCCCC)C(=O)[C@H](CCC(=O)O)NC(=O)[C@H](Cc1ccc(OP(=O)(O)O)cc1)NC(=O)Nc1ccc(N)cc1 | 26.9
19 | CCCCCN(CCCCC)C(=O)[C@H](CCC(=O)O)NC(=O)[C@H](Cc1ccc(OP(=O)(O)O)cc1)NC(=O)Nc1ccc([N+](=O)[O-])cc1 | 184
20 | CCCCCN(CCCCC)C(=O)[C@H](CCC(=O)O)NC(=O)[C@H](Cc1ccc(OP(=O)(O)O)cc1)NC(=O)CCc1cccnc1 | 17.7
21 | CCCCCN(CCCCC)C(=O)[C@H](CCC(=O)O)NC(=O)[C@H](Cc1ccc(OP(=O)(O)O)cc1)NC(=O)c1ccc([N+](=O)[O-])cc1 | 5.7

Results, then the compound that gave them:

Row | Ratio | SMILES
22 | 3.6 | CC(=O)N[C@@H](Cc1ccc(OP(=O)(O)O)cc1)C(=O)N[C@@H](CCC(=O)O)C(=O)N(C)CCCCCCCO
23 | 48 | CCCCCN(CCC(=O)O)C(=O)[C@H](CCC(=O)O)NC(=O)[C@H](Cc1ccc(OP(=O)(O)O)cc1)NC(C)=O
24 | 115 | CC(=O)N[C@@H](Cc1ccc(OP(=O)(O)O)cc1)C(=O)N[C@@H](CCC(=O)O)C(=O)NCCCCCCC(N)=O (Ac-[pY]-Glu-[Ahp]-NH2)
25 | 75.3 | CCCCCN(CCCCC)C(=O)[C@H](CCS(C)(=O)=O)NC(=O)[C@H](Cc1ccc(OP(=O)(O)O)cc1)NC(C)=O
26 | 11.6 | CC(=O)N[C@@H](Cc1ccc(OP(=O)(O)O)cc1)C(=O)N[C@@H](CCC(=O)O)C(=O)N(C)CCCc1c[nH]c2ccccc12
27 | 16.7 | CCCCCN(CCO)C(=O)[C@H](CCC(=O)O)NC(=O)[C@H](Cc1ccc(OP(=O)(O)O)cc1)NC(C)=O
28 | 200 | CC(=O)N[C@@H](Cc1ccc(OP(=O)(O)O)cc1)C(=O)N[C@@H](CCC(=O)O)C(N)=O (Ac-[pY]-Glu-NH2)
29 | 31.8 | CC(=O)N[C@@H](Cc1ccc(OP(=O)(O)O)cc1)C(=O)N[C@@H](CCC(=O)O)C(=O)N(C)CCc1c[nH]c2ccccc12
30 | 57.2 | CCCCCN(CCCCC)C(=O)[C@H](CCC(=O)O)NC(=O)[C@H](Cc1ccc(OP(=O)(O)O)cc1)NC(=O)C(F)(F)F
31 | 16.5 | CCCCCN(CCCCC)C(=O)[C@H](CCSC)NC(=O)[C@H](Cc1ccc(OP(=O)(O)O)cc1)NC(C)=O
32 | 36.7 | CC(=O)N[C@@H](Cc1ccc(OP(=O)(O)O)cc1)C(=O)N[C@@H](CCC(=O)O)C(=O)NCCCCCCC(=O)O (Ac-[pY]-Glu-[Ahp]-OH)
33 | 2.2 | CC(=O)N[C@@H](Cc1ccc(OP(=O)(O)O)cc1)C(=O)N[C@@H](CCC(=O)O)C(=O)N(C)CCCCCCCCO
34 | 15.3 | CCCCCN(CCCCC)C(=O)[C@H](CCC(=O)O)NC(=O)[C@H](Cc1ccc(OP(=O)(O)O)cc1)NC(=O)c1ccccc1
35 | 16.6 | CCCCCNC(=O)[C@H](CCC(=O)O)NC(=O)[C@H](Cc1ccc(OP(=O)(O)O)cc1)NC(C)=O
36 | 6.4 | CC(=O)N[C@@H](Cc1ccc(OP(=O)(O)O)cc1)C(=O)N[C@@H](CCC(=O)O)C(=O)N(C)CCCCCCO
37 | 26 | CCCCCN(CCC(=O)OCC)C(=O)[C@H](CCC(=O)O)NC(=O)[C@H](Cc1ccc(OP(=O)(O)O)cc1)NC(C)=O
38 | 606 | CC(=O)N[C@@H](Cc1ccc(OP(=O)(O)O)cc1)C(=O)N[C@@H](CCC(=O)O)C(=O)O (Ac-[pY]-Glu-OH)
39 | 12 | CCCCCN(C)C(=O)[C@H](CCC(=O)O)NC(=O)[C@H](Cc1ccc(OP(=O)(O)O)cc1)NC(C)=O
40 | 24 | CCCCCCN(CCCCCC)C(=O)[C@H](CCC(=O)O)NC(=O)[C@H](Cc1ccc(OP(=O)(O)O)cc1)NC(C)=O
41 | 327 | CCCCCCCN(CCCCCCC)C(=O)[C@H](CCC(=O)O)NC(=O)[C@H](Cc1ccc(OP(=O)(O)O)cc1)NC(C)=O
42 | 9.3 | CC(=O)N[C@@H](Cc1ccc(OP(=O)(O)O)cc1)C(=O)N[C@@H](CCC(=O)O)C(=O)N(C)CCCc1c(C(N)=O)[nH]c2ccccc12
